Like-named read-outs stand apart in the source and are kept apart here.
Key:
[1] = test system: epimastigotes of T. cruzi Arequipa strain; experiment: Flow cytometry analysis of nucleic acid levels (acridine orange); type: cell-based, Trypanosoma cruzi; details: IC25 concentrations, 72 h
[2] = test system: T. cruzi amastigotes, SN3 strain; experiment: Screening against intracellular amastigotes, SN3 strain; type: cell-based, Trypanosoma cruzi; details: for IC50: Trypanosoma cruzi, amastigotes in Vero cells, 72 h, read-out: activity IC50, SN3 strain, am. forms
[3] = type: in vivo, BALB/c mice; details: variation vs control
Description: (§1) Female BALB/c mice aged 10–12 weeks and with a size of 20–24 g were divided into five groups (n = 3 per group): 0, negative control group (uninfected and untreated mice); I, positive control group (infected and untreated mice); II, BZN group (infected mice treated with BZN); III, 26 group (infected mice treated with 26); and IV, 28 group (infected mice treated with 28).
(§2) The tested selenocompounds and BZN were prepared at 2 mg·mL^–1 in an aqueous suspension vehicle containing 5% (v/v) DMSO and 0.5% (w/v) hydroxypropyl methylcellulose, as previously reported.[52] Compounds (20 mg·kg^–1 per day) were administered for 5 consecutive days (total dosages of 100 mg·kg^–1), and vehicle only was administered in the negative and positive control groups. Treatments began when the infection was confirmed (9 dpi) for acute-phase-treated mice, and when it was established that the animals moved into the chronic phase (100 dpi, for chronic-phase-treated mice; Scheme 1).
Serum samples obtained from blood in several days post-infection (Scheme 1) were sent to the Biochemical Service (University of Granada) to measure a series of biochemical parameters with the commercial Cromakit using a clinical chemistry analyzer (BS-200, Shenzhen Mindray Biomedical Electronics Co., LTD), as previously described.[41]

Vero cells = experiment: Cytotoxicity test on Vero cells; type: cell-based; details: Chlorocebus sabaeus, 48 h + 24 h resazurin, read-out: Toxicity IC50 Vero cell
[4] = test system: T. cruzi amastigotes, Arequipa strain; experiment: Screening against intracellular amastigotes, Arequipa strain; type: cell-based, Trypanosoma cruzi; details: for IC50: Trypanosoma cruzi, amastigotes in Vero cells, 72 h, read-out: activity IC50, Arequipa strain, am. forms; for selectivity index (SI), Arequipa strain, am. forms: IC50 Vero cells/IC50 amastigotes
[5] = test system: T. cruzi epimastigotes, Tulahuen strain; experiment: Screening against extracellular epimastigotes, Tulahuen strain; type: cell-based, Trypanosoma cruzi; details: for IC50: Trypanosoma cruzi, TULAHUEN, 48 h + 24 h resazurin, read-out: Activity IC50, epimastigote form, Tulahuen strain; for Selectivity index (SI), epimastigotes, Tulahuen strain: IC50 Vero cells/IC50 epimastigotes
T. cruzi Arequipa strain = experiment: In vivo trypanocidal activity on BALB/c mice (acute and chronic Chagas disease); design: species or system Trypanosoma cruzi
Description: as §1
Mice were infected by intraperitoneal injection of 5 × 10^5 BTs of T. cruzi Arequipa strain per mouse in 200 μL PBS.[42] Subsequently, the treatment was intraperitoneally administered (∼200 μL) once daily for 5 consecutive days.
as §2
[…]. Parasitemia was expressed as parasites·mL^–1.
Immunosuppression was performed by intraperitoneal injection of three doses of 200 mg·kg^–1 of ISOPAC CP at 3–4 day intervals (Scheme 1), as previously reported.[53] Mice were closely monitored for side effects or for secondary infections due to immunosuppression. Within 7 days after the last CP injection, parasitemia reactivation was determined by counting BTs according the procedure described for parasitemia in the acute phase.[42]
On 145 dpi, the mice were euthanized using CO2, followed by exsanguination via cardiac puncture, and blood was collected. […]. In addition, spleens were weighed to assess splenomegaly.[42]
DNA extraction of the post-mortem organs/tissues was performed using Wizard Genomic DNA Purification Kit,[41] and the extracted DNA was subjected to amplification by PCR based on the spliced leader (SL) intergenic region sequence of T. cruzi (for detailed description, see literature reported previously).[55] Finally, the PCR products were resolved by electrophoresis on a 2% agarose gel (containing GelRed nucleic gel stain) for 90 min at 90 V.
Circulating antibodies in serum against both antigens were quantitatively evaluated in triplicate by the ELISA test in 96-well plates using diluted serum samples (1:80 in PBS), as previously described.[41]

[6] = test system: T. cruzi trypomastigotes, Tulahuen strain; experiment: Screening against bloodstream trypomastigotes, Tulahuen strain; type: cell-based, Trypanosoma cruzi; details: Trypanosoma cruzi, TULAHUEN; bloodstream trypomastigotes, 24 h + 4 h resazurin; read-out: activity IC50, Tulahuen strain, trypom. forms
[7] = test system: T. cruzi trypomastigotes, Arequipa strain; experiment: Screening against bloodstream trypomastigotes, Arequipa strain; type: cell-based, Trypanosoma cruzi; details: for IC50: Trypanosoma cruzi, bloodstream trypomastigotes, 24 h + 4 h resazurin, read-out: activity IC50, Arequipa strain, trypom. forms; for selectivity index (SI), Arequipa strain, trypom. forms: IC50 Vero cells/IC50 trypomastigotes
[8] = test system: T. cruzi amastigotes, Tulahuen strain; experiment: Screening against intracellular amastigotes, Tulahuen strain; type: cell-based, Trypanosoma cruzi; details: Trypanosoma cruzi, TULAHUEN; amastigotes in Vero cells, 72 h; read-out: activity IC50, Tulahuen strain, am. forms
[9] = test system: Vero cells infected with T. cruzi Arequipa strain; experiment: Infection rate in Vero cells (infected cells), Arequipa strain; type: cell-based; details: Trypanosoma cruzi, 72 h of treatment
[10] = test system: T. cruzi epimastigotes, SN3 strain; experiment: Screening against extracellular epimastigotes, SN3 strain; type: cell-based, Trypanosoma cruzi; details: for IC50: Trypanosoma cruzi, 48 h + 24 h resazurin, read-out: Activity IC50, epimastigote form, SN3 strain; for Selectivity index (SI), epimastigotes, SN3 strain: IC50 Vero cells/IC50 epimastigotes
[11] = test system: T. cruzi epimastigotes, Arequipa strain; experiment: Screening against extracellular epimastigotes, Arequipa strain; type: cell-based, Trypanosoma cruzi; details: for Selectivity index (SI), epimastigotes, Arequipa strain: IC50 Vero cells/IC50 epimastigotes; for IC50: Trypanosoma cruzi, 48 h + 24 h resazurin, read-out: Activity IC50, epimastigote form, Arequipa strain
[12] = test system: T. cruzi trypomastigotes, SN3 strain; experiment: Screening against bloodstream trypomastigotes, SN3 strain; type: cell-based, Trypanosoma cruzi
[13] = treatment in acute phase, 15th dpi (2 days after treatment)
[14] = treatment in acute phase, necropsy day
[15] = treatment in chronic phase, 106th dpi (2 days after treatment)
[16] = treatment in chronic phase, necropsy day

Compound: O=C(Cn1ccnc1[N+](=O)[O-])NCc1ccccc1 [BZN, benznidazole, reference compound]
- inhibition of nucleic acid levels [1]: up to 22%
- IC50 [2]: 16.6 ± 1.4 µM
- ALP (liver marker) [3, 13]: = (=, variation ≤ 10%)
- ALT/GPT (liver marker) [3, 13]: ++ (++/--, 20-30% increase/decrease over the range)
- AST/GOT (liver marker) [3, 13]: ++++ (++++/----, ˃ 40% increase/decrease over the range)
- CK-MB (heart marker) [3, 13]: = (=, variation ≤ 10%)
- LDH (heart marker) [3, 13]: = (=, variation ≤ 10%)
- Total bilirubin (liver marker) [3, 13]: ++++ (++++/----, ˃ 40% increase/decrease over the range)
- Urea (kidney marker) [3, 13]: -- (++/--, 20-30% increase/decrease over the range)
- Uric acid (kidney marker) [3, 13]: ---- (++++/----, ˃ 40% increase/decrease over the range)
- ALP (liver marker) [3, 14]: = (=, variation ≤ 10%)
- ALT/GPT (liver marker) [3, 14]: = (=, variation ≤ 10%)
- AST/GOT (liver marker) [3, 14]: + (+/-, 10-20% increase/decrease over the range)
- CK-MB (heart marker) [3, 14]: - (+/-, 10-20% increase/decrease over the range)
- LDH (heart marker) [3, 14]: = (=, variation ≤ 10%)
- Total bilirubin (liver marker) [3, 14]: ++ (++/--, 20-30% increase/decrease over the range)
- Urea (kidney marker) [3, 14]: -- (++/--, 20-30% increase/decrease over the range)
- Uric acid (kidney marker) [3, 14]: - (+/-, 10-20% increase/decrease over the range)
- ALP (liver marker) [3, 15]: ++++ (++++/----, ˃ 40% increase/decrease over the range)
- ALT/GPT (liver marker) [3, 15]: ++ (++/--, 20-30% increase/decrease over the range)
- AST/GOT (liver marker) [3, 15]: + (+/-, 10-20% increase/decrease over the range)
- CK-MB (heart marker) [3, 15]: -- (++/--, 20-30% increase/decrease over the range)
- LDH (heart marker) [3, 15]: -- (++/--, 20-30% increase/decrease over the range)
- Total bilirubin (liver marker) [3, 15]: + (+/-, 10-20% increase/decrease over the range)
- Urea (kidney marker) [3, 15]: - (+/-, 10-20% increase/decrease over the range)
- Uric acid (kidney marker) [3, 15]: - (+/-, 10-20% increase/decrease over the range)
- ALP (liver marker) [3, 16]: = (=, variation ≤ 10%)
- ALT/GPT (liver marker) [3, 16]: ++ (++/--, 20-30% increase/decrease over the range)
- AST/GOT (liver marker) [3, 16]: + (+/-, 10-20% increase/decrease over the range)
- CK-MB (heart marker) [3, 16]: -- (++/--, 20-30% increase/decrease over the range)
- LDH (heart marker) [3, 16]: -- (++/--, 20-30% increase/decrease over the range)
- Total bilirubin (liver marker) [3, 16]: ++ (++/--, 20-30% increase/decrease over the range)
- Urea (kidney marker) [3, 16]: = (=, variation ≤ 10%)
- Uric acid (kidney marker) [3, 16]: - (+/-, 10-20% increase/decrease over the range)
- IC50 (Vero cells): 80.4 ± 7.1 µM
- IC50 [4]: 8.3 ± 0.7 µM
- IC50 [5]: 19.7 ± 1.7 µM
- parasite-free organs/tissues by PCR, acute phase treatment (T. cruzi Arequipa strain; 20 mg·kg–1 per day i.p. 5 days from 9 dpi, necropsy 145 dpi): 28.6%
- anti-T. cruzi IgG levels (ELISA), chronic phase treatment (T. cruzi Arequipa strain; 20 mg·kg–1 per day i.p. 5 days from 100 dpi): similar
- parasite-free organs/tissues by PCR, chronic phase treatment (T. cruzi Arequipa strain; 20 mg·kg–1 per day i.p. 5 days from 100 dpi, necropsy 145 dpi): 42.9%
- IC50 [6]: 15.1 ± 1.3 µM
- IC50 [7]: 12.4 ± 1.1 µM
- IC50 [8]: 10 ± 0.8 µM
- IC50 [9]: 15.1 µM

Compound: N#C[Se]c1ccc(NC(=O)c2ccc([N+](=O)[O-])cc2)cc1 [Compound 25]
- IC50 [10]: > 50 µM
- Selectivity index (SI), epimastigotes, Arequipa strain [11]: 20
- IC50 [11]: 26.3 ± 2.1 µM
- CC50 (Vero cells): 516 ± 42.2 µM
- selectivity index (SI), Arequipa strain, am. forms [4]: 10
- IC50 [4]: 49.3 ± 4.1 µM
- Selectivity index (SI), epimastigotes, Tulahuen strain [5]: 20
- IC50 [5]: 25.3 ± 4.1 µM
- IC50 [6]: 42.2 ± 3.9 µM
- selectivity index (SI), Arequipa strain, trypom. forms [7]: 14
- IC50 [7]: 35.8 ± 5.8 µM
- IC50 [8]: > 50 µM

Compound: N#C[Se]c1ccc(NC(=O)c2cccs2)cc1 [Compound 29]
- Selectivity index (SI), epimastigotes, SN3 strain [10]: 7
- IC50 [10]: 8.9 ± 1.1 µM
- Selectivity index (SI), epimastigotes, Arequipa strain [11]: 11
- IC50 [11]: 5.4 ± 0.8 µM
- CC50 (Vero cells): 60.9 ± 8.7 µM
- selectivity index (SI), Arequipa strain, am. forms [4]: 4
- IC50 [4]: 15.4 ± 2 µM
- Selectivity index (SI), epimastigotes, Tulahuen strain [5]: 9
- IC50 [5]: 6.6 ± 0.4 µM
- selectivity index (SI), Arequipa strain, trypom. forms [7]: 5
- IC50 [7]: 12.7 ± 1.2 µM

Compound: N#C[Se]c1ccc(NC(=O)c2cccc3ccccc23)cc1 [Compound 33]
- selectivity index (SI), SN3 strain, am. forms ([2]; IC50 Vero cells/IC50 amastigotes): 3
- IC50 [2]: 16.9 ± 1.4 µM
- Selectivity index (SI), epimastigotes, SN3 strain [10]: 11
- IC50 [10]: 4.8 ± 0.6 µM
- Selectivity index (SI), epimastigotes, Arequipa strain [11]: 6
- IC50 [11]: 9.4 ± 1.2 µM
- CC50 (Vero cells): 52.7 ± 4.9 µM
- Selectivity index (SI), epimastigotes, Tulahuen strain [5]: 5
- IC50 [5]: 10.8 ± 1.2 µM
- selectivity index (SI), SN3 strain, trypom. forms ([12]; IC50 Vero cells/IC50 trypomastigotes): 4
- IC50 ([12]; Trypanosoma cruzi, bloodstream trypomastigotes, 24 h + 4 h resazurin, read-out: activity IC50, SN3 strain, trypom. forms): 14.1 ± 1.1 µM
